This assay relates to HER2 Tyrosine Kinase Domain (TKD) mutation positive non-squamous NSCLC. The experiment in a line: Phase Ib dose expansion, Cohort 1: objective response and disease control (RECIST 1.1). It counts as in vivo, human. To be noted: 120/240 mg QD. The text has this:
This Example focuses on the dose expansion part (Phase Ib) of the Phase I study described in Example 8. Approximately 275 patients diagnosed with advanced or metastatic refractory NSCLC harbouring mutations in the HER2 gene are enrolled. Patients are divided into 5 cohorts according to the main inclusion criteria listed below.
The trial objectives of Phase Ib include: • For cohort 1, cohort 2, and cohort 5, assess objective tumour response rate by central independent review; • For cohort 3, assess objective tumour response rate by investigator assessment; • For all cohorts, further investigate the safety, tolerability, and PK of the investigated doses of zongertinib in patients with HER2 mutation positive advanced/metastatic NSCLC; • For all cohorts, continue evaluating safety, and patient-reported outcomes.
The primary endpoints of Phase Ib include: • For cohort 1, 2, and 5: objective response (OR) assessed by independent central review, according to Response Evaluation Criteria In Solid Tumors (RECIST) version 1.1; • For cohort 3: objective response (OR) by investigator.
For Cohort 1, 2, and 5: • Duration of objective response (DoR) according to RECIST 1.1 by central independent review; • Disease control (DC) according to RECIST 1.1 by central independent review; • Progression-free survival (PFS) according to RECIST 1.1 by central independent review; […]

Where [1] appears, read: 23 evaluable patients (received 2-5 cycles at cut-off).

Consider `C=CC(=O)NC1CCN(c2ncc3ncnc(Nc4ccc(Oc5ccc6c(c5)ncn6C)c(C)c4)c3n2)CC1` [compound (1), N-{1-[8-({3-methyl-4-[(1-methyl-1H-1,3-benzodiazol-5-yl)oxy]phenyl}amino)-[1,3]diazino[5,4-d]pyrimidin-2-yl]piperidin-4-yl}prop-2-enamide], for which the “responding patients on treatment at data cut-off” value is listed as “All responding patients remained on treatment”. Under setting [1], the DCR came out at 91% and the ORR was 74%.

The record behind these values is patent US20260207606A1, “DOSING SCHEDULE OF A SOLID DISPERSION OF A HER2 INHIBITOR” (Boehringer Ingelheim International GmbH, priority 2022, published 2026).
